{"source": "paper PMC7144397", "about": "(Molecules, 2020)", "target": "myotoxic Asp-49 phospholipase A2 (PLA2) from Crotalus durissus cumanensis venom", "assay": "chromogenic PLA2 assay, […] nm, 96-well plate", "type": "biochemical", "conditions": "substrate 4-nitro-3-octanoyloxybenzoic acid type (4N3OBA, 20 μL of 10 mM); 10 mM Tris-HCl, 10 mM CaCl2, 100 mM NaCl, pH 8.0; 37 °C; 20 μg PLA2, 30 min pre-incubation; from linear portion of the dose-r", "data": [{"molecule": "O=[N+]([O-])c1ccc(C(=S)SCc2ccccc2)cc1", "note": "[I, Benzyl 4-nitrobenzenecarbodithioate]", "values": [{"measurement": "IC50", "value": "55.6 ± 4.6", "unit": "µM"}]}]}
